How the values were obtained:
Type in all cases: cell-based, mouse
[1] = test system: MMP-low and MMP-high LSK cells; assay: Metabolic assays (Seahorse OCR and ECAR); conditions: ConA 40 nM, 18 hours
Description: Metabolic Assays. Oxygen consumption rates (“OCR”) and extracellular acidification rates (“ECAR”) were measured using a 96-well Seahorse Bioanalyzer XF 96 according to manufacturer's instructions using Seahorse Mito Stress Test or Glycolysis Stress Test kit (Agilent Technologies). In brief, MMP-low and MMP-high LSK cells isolated from a pool of at least 11 mice (40,000 cells per well) were sorted and treated with or without ConA (40 nM) for 18 hours in StemSpan media with SCF (10 ng/mL) and TPO (20 ng/mL). Cells were washed and suspended in XF basic medium with 11 mM glucose, 1 mM sodium pyruvate and 2 mM glutamine (pH 7.4 at 37° C.). The injection port A on the sensor cartridge was loaded with […] oligomycin (Oligo), 2 mM FCCP was loaded into port B and 0.5 mM rotenone/antimycin (ROT/AA) A was loaded into port C. During sensor calibration, the cells were incubated in the 37° C. non-CO2 incubator. The plate was immediately placed onto the calibrated XF96 extracellular flux analyzer for the Mito Stress Test. For the glycolysis stress test, cells were suspended in XF basic medium in 1 mM glutamine (pH 7.4 at 37° C.). The injection port A on the sensor cartridge was loaded with 10 mM glucose. Then, 2 mM oligomycin was loaded into port B and 50 mM 2-DG into port C. During sensor calibration, cells were incubated in the 37° C. non-CO2 incubator. The plate was immediately placed in the calibrated XF96 extracellular flux analyzer for the glycolysis stress test.

[2] = test system: MMP-low and MMP-high HSCs; assay: Long term culture-initiating cell (LTC-IC) assay
Description: Long Term Culture-Initiating Cell (“LTC-IC”) Assay: Long-term cultures were initiated as described in Lemieux et al., “Characterization and Purification of a Primitive Hematopoietic Cell Type in Adult Mouse Marrow Capable of Lymphomyeloid Differentiation in Long-Term Marrow ‘Switch’ Cultures,” Blood 86: 1339-1347 (1995), which is hereby incorporated by reference in its entirety. […] The frequency of long-term culture-initiated cells (“LTC-ICs”) was determined by limiting dilution and applying Poisson distribution statistics as described in Hu & Smyth, “ELDA: Extreme Limiting Dilution Analysis for Comparing Depleted and Enriched Populations in Stem Cell and Other Assays,” J. Immunol. Methods 347: 70-78 (2009), which is hereby incorporated by reference in its entirety.

[3] = test system: MMP-low and MMP-high HSCs; assay: Autophagic vacuole formation / lysosomal localization of mitochondria (confocal immunofluorescence)
Excerpt: Immunofluorescence Staining, Imaging, and Analysis—Super Resolution Confocal Microscopy: Images were acquired with a Zeiss LSM 880 confocal microscope equipped with Airyscan Super Resolution Imaging module, using a 100×/1.46 Alpha Plan Apochromat objective lens (Zeiss MicroImaging, Jena, Germany) with “optimal” (Nyquist) XY scaling. Z stacks through the entire cell were acquired at an […] (at least 20 optical sections) using a pixel dwell time of >50 microseconds and field dimensions of […] (20 MMP-low and 20 MMP-high HSCs analyzed). This was followed by Airyscan image processing (set at auto but rarely over 6.2) and analyses using ZEN image acquisition and processing software (ZEN blue/black). Maximum intensity projections shown in the figures were also obtained using ZEN Blue software.
Lysosomal Localization of Mitochondria. FACS-sorted MMP-low and MMP-high HSCs (LSKCD150^+CD48^-MMP-low/-high) were treated with DMSO control or leupeptin […] for 4 hours. HSCs were then fixed and imaged for TOM20 (mitochondria) and LAMP1 (lysosomes).
Autophagic Vacuole Formation. Accumulation of autophagy substrates, Translocase of outer membrane 20 (TOM20) or Map11c3a (LC3), was determined in the presence of amino acid-containing (DMSO) or -starved amino acid-depleted media, v-ATPase inhibitor concanamycin A (ConA 40nM), inhibitor of autophagosome-autolysosome fusion chloroquine (CQ, […]), or protease inhibitor, leupeptin […] following guidelines outlined for study of autophagy (Klionsky et al., “Guidelines for the Use and Interpretation of Assays for Monitoring Autophagy (3rd Edition),” Autophagy 12(1): 1-222 (2016) and Martinez-Lopez et al., “Autophagy Proteins Regulate ERK Phosphorylation,” Nat. Commun. 4: 2799 (2013), which are hereby incorporated by reference in their entirety). In brief, FACS-sorted
MMP-low and MMP- high HSCs were cultured in the presence or absence of indicated inhibitors for 4, 5, or 18 hours following which cells were subjected to immunofluorescence assays for TOM20, LC3 and/or LAMP1 or LAMP2 as described above. Analyses were performed to quantify the turnover of indicated protein in lysosomes by evaluating the accumulation of TOM20 or LC3 in the presence versus absence of an inhibitor. TOM20 and LC3 flux were determined by subtracting the colocalized value of inhibitor-untreated TOM20 or LC3 with LAMP1 from corresponding inhibitor-treated values. Images were captured using a Zeiss LSM880 Airyscan confocal microscope using 100 X objectives (Leica), and percentage colocalization was calculated using the JACoP plugin (NIH ImageJ).
Mitochondrial and Lysosome Morphology: Freshly isolated HSCs were analyzed for mitochondrial morphology. Each individual HSC (150 total) was analyzed by using Arivis Vision 4D software and classified as either fragmented or not fragmented in accordance with number of surfaces. Cells that fulfilled the definition of ‘fragmented’ contained 3 or more individual mitochondrial surfaces (Kask et al., “Fluorescence-intensity Distribution Analysis and Its Application in Biomolecular Detection Technology,” Proc. Natl. Acad. Sci. USA 96(24): 13756-13761 (1999), which is hereby incorporated by reference in its entirety). Lysosomes' fluorescence intensity or area profiling was calculated using ImageJ software enabling the detection of fluorescently labeled […] boundaries (lysosomal marker LAMP1), as reflected by sharp increases or decreases in fluorescence intensity. Channels displaying fluorescence for either mitochondria or lysosomes were thresholded with the IsoData option to delimit the boundaries of mitochondrial networks and lysosome morphology. The resulting outlines were measured using the analyzed particles option to determine the size of distinct particles representing mitochondrial networks or lysosomes. More than 50 cells/condition/experiment were analyzed for lysosomes. […]

[4] = aged HSCs, Con A 40 nM, two days

Compound: C/C=C/[C@H]1O[C@@](O)([C@@H](C)[C@H](O)[C@H](C)[C@H]2OC(=O)/C(OC)=C/C(C)=C/[C@@H](C)[C@@H](O)[C@@H](CC)[C@@H](O)[C@H](C)C/C(C)=C/C=C/[C@@H]2OC)C[C@@H](O[C@H]2C[C@@H](O)[C@H](OC(N)=O)[C@@H](C)O2)[C@@H]1C [ConA, concanamycin A]
- glycolysis (ECAR) in MMP-high and MMP-low HSPCs [1]: collapsed glycolysis
- oxygen consumption in MMP-low HSPCs [1]: only a relatively small effect
- oxygen consumption in primed (MMP-high) HSPCs [1]: drastically decreased oxygen consumption
- enhanced frequency of LTC-ICs, MMP-high HSCs ([2]; ConA 40 nM, 48-hour or 4-day): 2.5 fold
- enhanced frequency of LTC-ICs, MMP-low HSCs ([2]; ConA 40 nM, 48-hour or 4-day): 1.5 fold
- size of LTC-IC-derived colonies ([2]; ConA 40 nM, two days): increased size of colonies
- LTC-IC-derived colonies from aged HSCs [2, 4]: increased the LTC-IC-derived colonies
- number of LTC-IC recovered from aged HSC cultures [2, 4]: improved the number
- fold increase of enlarged lysosomes, MMP-high HSCs ([3]; 5-hour ConA treatment, 40 nM): 35
- fold increase of enlarged lysosomes, MMP-low HSCs ([3]; 5-hour ConA treatment, 40 nM): 32
- increase of lysosomal localization of TOM20, MMP-high HSCs ([3]; ConA 40 nM): ~3 fold
- increase of lysosomal localization of TOM20, MMP-low HSCs ([3]; ConA 40 nM): ~1.3 fold
- mitochondrial fragmentation ([3]; ConA 40 nM): enhanced mitochondrial fragmentation
- increase in LC3-positive puncta, MMP-high HSCs ([3]; ConA 40 nM, 18 hours): 3 fold
- increase in LC3-positive puncta, MMP-low HSCs ([3]; ConA 40 nM, 18 hours): 1.33 fold
- autolysosomal degradation (colocalization of LAMP1 with LC3) ([3]; ConA 40 nM, leupeptin 100 mM, chloroquine 40 mM, 18 hours, MMP-low and MMP-high HSCs): dramatically prevented autolysosomal degradation

— US20220243177A1, “METHODS OF CULTURING QUIESCENT HEMATOPOIETIC STEM CELLS AND TREATMENT METHODS” (priority 2019, published 2022)
